Laboratory results taken from PubChem BioAssay AID2060502 (Molecular Pharmacology Branch, DTP, NCI, 2025).

Test system: 885724-159-R-J1-PDC complex spheroid viability
Assay: Anticancer human tumor 885724-159-R-J1-PDC patient-derived pancreatic adenocarcinoma cell line growth inhibition [GQUAD]
Details: for IC50: curve of first compound; for viability, T/C: stronger effect = lower value
How it was run: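 Tumor cells were grown as complex spheroids with HUVEC endothelial cells and mesenchymal stem cells as stroma. G-quadruplex stabilizers were combined with targeted agents over half-log dilutions from near the clinical Cmax, or from 10 microM.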

[1] = second compound 0.0316 µM, first compound 0.0316 µM
[2] = second compound 0.0316 µM, first compound 0.316 µM
[3] = second compound 0.1 µM, first compound 0.0316 µM
[4] = second compound 0.1 µM, first compound 0.316 µM
[5] = second compound 0.316 µM, first compound 0.0316 µM
[6] = second compound 0.316 µM, first compound 0.316 µM
[7] = second compound 1 µM, first compound 0.0316 µM
[8] = second compound 1 µM, first compound 0.316 µM
[9] = second compound 3.16 µM, first compound 0.0316 µM
[10] = second compound 3.16 µM, first compound 0.316 µM
[11] = second compound 10 µM, first compound 0.0316 µM
[12] = second compound 10 µM, first compound 0.316 µM
[13] = second compound 0.0316 µM, first compound 0.1 µM
[14] = second compound 0.0316 µM, first compound 1 µM
[15] = second compound 0.0316 µM, first compound 3.16 µM
[16] = second compound 0.0316 µM, first compound 10 µM
[17] = second compound 0.1 µM, first compound 0.1 µM
[18] = second compound 0.1 µM, first compound 1 µM
[19] = second compound 0.1 µM, first compound 3.16 µM
[20] = second compound 0.1 µM, first compound 10 µM
[21] = second compound 0.316 µM, first compound 0.1 µM
[22] = second compound 0.316 µM, first compound 1 µM
[23] = second compound 0.316 µM, first compound 3.16 µM
[24] = second compound 0.316 µM, first compound 10 µM
[25] = second compound 1 µM, first compound 0.1 µM
[26] = second compound 1 µM, first compound 1 µM
[27] = second compound 1 µM, first compound 3.16 µM
[28] = second compound 1 µM, first compound 10 µM
[29] = second compound 3.16 µM, first compound 0.1 µM
[30] = second compound 3.16 µM, first compound 1 µM
[31] = second compound 3.16 µM, first compound 3.16 µM
[32] = second compound 3.16 µM, first compound 10 µM
[33] = second compound 10 µM, first compound 0.1 µM
[34] = second compound 10 µM, first compound 1 µM
[35] = second compound 10 µM, first compound 3.16 µM
[36] = second compound 10 µM, first compound 10 µM
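Also: spheroids exposed to agents for seven days before readout.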
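For viability, T/C in this document: percent of vehicle control viability where 100% = DMSO wells.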

## Cn1ncnc1[C@H]1c2n[nH]c(=O)c3cc(F)cc(c23)N[C@@H]1c1ccc(F)cc1 + Cc1[nH]c2ccc(F)cc2c1-c1nc2c3cccnc3c3ncccc3c2[nH]1
Second compound 0.0316 µM
  IC50: > 0.316 µM
Second compound 0.1 µM
  IC50: > 0.316 µM
Second compound 0.316 µM
  IC50: > 0.316 µM
Second compound 1 µM
  IC50: > 0.316 µM
Second compound 3.16 µM
  IC50: < 0.000999 µM
Second compound 10 µM
  IC50: > 0.316 µM
Second compound 0.0316 µM, first compound 0.000999 µM
  viability, T/C: 104%
Second compound 0.0316 µM, first compound 0.00316 µM
  viability, T/C: 95.2%
Second compound 0.0316 µM, first compound 0.00999 µM
  viability, T/C: 106%
[1]
  viability, T/C: 80.6%
Second compound 0.0316 µM, first compound 0.0999 µM
  viability, T/C: 91.9%
[2]
  viability, T/C: 95.8%
Second compound 0.1 µM, first compound 0.000999 µM
  viability, T/C: 97.5%
Second compound 0.1 µM, first compound 0.00316 µM
  viability, T/C: 90%
Second compound 0.1 µM, first compound 0.00999 µM
  viability, T/C: 85.6%
[3]
  viability, T/C: 93.9%
Second compound 0.1 µM, first compound 0.0999 µM
  viability, T/C: 88.3%
[4]
  viability, T/C: 80.2%
Second compound 0.316 µM, first compound 0.000999 µM
  viability, T/C: 87.3%
Second compound 0.316 µM, first compound 0.00316 µM
  viability, T/C: 106%
Second compound 0.316 µM, first compound 0.00999 µM
  viability, T/C: 92%
[5]
  viability, T/C: 91.3%
Second compound 0.316 µM, first compound 0.0999 µM
  viability, T/C: 80.8%
[6]
  viability, T/C: 82.2%
Second compound 1 µM, first compound 0.000999 µM
  viability, T/C: 78%
Second compound 1 µM, first compound 0.00316 µM
  viability, T/C: 68.4%
Second compound 1 µM, first compound 0.00999 µM
  viability, T/C: 68.8%
[7]
  viability, T/C: 73.6%
Second compound 1 µM, first compound 0.0999 µM
  viability, T/C: 72%
[8]
  viability, T/C: 81%
Second compound 3.16 µM, first compound 0.000999 µM
  viability, T/C: 40.1%
Second compound 3.16 µM, first compound 0.00316 µM
  viability, T/C: 36.1%
Second compound 3.16 µM, first compound 0.00999 µM
  viability, T/C: 43.8%
[9]
  viability, T/C: 33.8%
Second compound 3.16 µM, first compound 0.0999 µM
  viability, T/C: 38%
[10]
  viability, T/C: 42.8%
Second compound 10 µM, first compound 0.000999 µM
  viability, T/C: 63%
Second compound 10 µM, first compound 0.00316 µM
  viability, T/C: 78.6%
Second compound 10 µM, first compound 0.00999 µM
  viability, T/C: 73.6%
[11]
  viability, T/C: 66.8%
Second compound 10 µM, first compound 0.0999 µM
  viability, T/C: 80.6%
[12]
  viability, T/C: 68.2%

## C#Cc1c(F)ccc2cc(O)cc(-c3ncc4c(N5CC6CCC(C5)N6)nc(OCC56CCCN5CC(F)C6)nc4c3F)c12 (stereo not drawn) + CN(C)c1ccc(Nc2c3ccc(NC(=O)CCN4CCCC4)cc3nc3cc(NC(=O)CCN4CCCC4)ccc23)cc1
Second compound 0.0316 µM
  IC50: 4.17 µM
Second compound 0.1 µM
  IC50: 4.29 µM
Second compound 0.316 µM
  IC50: 5.21 µM
Second compound 1 µM
  IC50: 4.33 µM
Second compound 3.16 µM
  IC50: 2.94 µM
Second compound 10 µM
  IC50: 2.13 µM
[1]
  viability, T/C: 92.1%
[13]
  viability, T/C: 112%
[2]
  viability, T/C: 94.8%
[14]
  viability, T/C: 86.9%
[15]
  viability, T/C: 58.8%
[16]
  viability, T/C: 22.8%
[3]
  viability, T/C: 114%
[17]
  viability, T/C: 100%
[4]
  viability, T/C: 98.3%
[18]
  viability, T/C: 86.2%
[19]
  viability, T/C: 56.7%
[20]
  viability, T/C: 26.1%
[5]
  viability, T/C: 95%
[21]
  viability, T/C: 100%
[6]
  viability, T/C: 96.6%
[22]
  viability, T/C: 79.2%
[23]
  viability, T/C: 68.1%
[24]
  viability, T/C: 28.7%
[7]
  viability, T/C: 89.4%
[25]
  viability, T/C: 72.7%
[8]
  viability, T/C: 87.8%
[26]
  viability, T/C: 79.3%
[27]
  viability, T/C: 59.5%
[28]
  viability, T/C: 24.6%
[9]
  viability, T/C: 78.3%
[29]
  viability, T/C: 68.1%
[10]
  viability, T/C: 69.5%
[30]
  viability, T/C: 60.9%
[31]
  viability, T/C: 51.4%
[32]
  viability, T/C: 24.7%
[11]
  viability, T/C: 64.8%
[33]
  viability, T/C: 68.7%
[12]
  viability, T/C: 58%
[34]
  viability, T/C: 84.2%
[35]
  viability, T/C: 40.2%
[36]
  viability, T/C: 2.3%

## CCCS(=O)(=O)Nc1ccc(F)c(C(=O)c2c[nH]c3ncc(-c4ccc(Cl)cc4)cc23)c1F + Cc1[nH]c2ccc(F)cc2c1-c1nc2c3cccnc3c3ncccc3c2[nH]1
Second compound 0.0316 µM
  IC50: > 10 µM
Second compound 0.1 µM
  IC50: > 10 µM
Second compound 0.316 µM
  IC50: > 10 µM
Second compound 1 µM
  IC50: 7.43 µM
Second compound 3.16 µM
  IC50: < 0.0316 µM
Second compound 10 µM
  IC50: 8.37 µM
[1]
  viability, T/C: 98.7%
[13]
  viability, T/C: 106%
[2]
  viability, T/C: 112%
[14]
  viability, T/C: 130%
[15]
  viability, T/C: 123%
[16]
  viability, T/C: 65.2%
[3]
  viability, T/C: 110%
[17]
  viability, T/C: 106%
[4]
  viability, T/C: 116%
[18]
  viability, T/C: 124%
[19]
  viability, T/C: 125%
[20]
  viability, T/C: 65.6%
[5]
  viability, T/C: 97.6%
[21]
  viability, T/C: 89.8%
[6]
  viability, T/C: 90%
[22]
  viability, T/C: 107%
[23]
  viability, T/C: 130%
[24]
  viability, T/C: 59.8%
[7]
  viability, T/C: 71.8%
[25]
  viability, T/C: 60.4%
[8]
  viability, T/C: 88.2%
[26]
  viability, T/C: 90.8%
[27]
  viability, T/C: 102%
[28]
  viability, T/C: 38.7%
[9]
  viability, T/C: 17%
[29]
  viability, T/C: 17.7%
[10]
  viability, T/C: 14.4%
[30]
  viability, T/C: 18.3%
[31]
  viability, T/C: 13.9%
[32]
  viability, T/C: 4.94%
[11]
  viability, T/C: 65.9%
[33]
  viability, T/C: 73.4%
[12]
  viability, T/C: 77.7%
[34]
  viability, T/C: 93.8%
[35]
  viability, T/C: 110%
[36]
  viability, T/C: 43.6%

## CC(C)(O)C1CCC(Nc2ccc3ncc(-c4cccc(C(F)(F)F)c4)n3n2)CC1 (stereo not drawn) + Cc1cnc(CNC(=O)c2c(=O)c3ccc(N4CCCN(C)CC4)nc3n3c2sc2ccccc23)cn1
Second compound 0.0316 µM
  IC50: 3.14 µM
Second compound 0.1 µM
  IC50: 4.18 µM
Second compound 0.316 µM
  IC50: 3.88 µM
Second compound 1 µM
  IC50: 2.61 µM
Second compound 3.16 µM
  IC50: 1.19 µM
Second compound 10 µM
  IC50: 1.04 µM
[1]
  viability, T/C: 112%
[13]
  viability, T/C: 86.4%
[2]
  viability, T/C: 93.2%
[14]
  viability, T/C: 70.3%
[15]
  viability, T/C: 44.2%
[16]
  viability, T/C: 40.6%
[3]
  viability, T/C: 108%
[17]
  viability, T/C: 103%
[4]
  viability, T/C: 91.2%
[18]
  viability, T/C: 79.1%
[19]
  viability, T/C: 45.5%
[20]
  viability, T/C: 48.1%
[5]
  viability, T/C: 94%
[21]
  viability, T/C: 89.9%
[6]
  viability, T/C: 79.4%
[22]
  viability, T/C: 71.1%
[23]
  viability, T/C: 50.4%
[24]
  viability, T/C: 39.9%
[7]
  viability, T/C: 88.5%
[25]
  viability, T/C: 73.2%
[8]
  viability, T/C: 77.2%
[26]
  viability, T/C: 67%
[27]
  viability, T/C: 45.2%
[28]
  viability, T/C: 36.7%
[9]
  viability, T/C: 73.8%
[29]
  viability, T/C: 65.6%
[10]
  viability, T/C: 64.9%
[30]
  viability, T/C: 55%
[31]
  viability, T/C: 28.4%
[32]
  viability, T/C: 11.7%
[11]
  viability, T/C: 62%
[33]
  viability, T/C: 69.4%
[12]
  viability, T/C: 62.5%
[34]
  viability, T/C: 51.8%
[35]
  viability, T/C: 9.65%
[36]
  viability, T/C: 0.29%
